Measured values published in PMC11231610, “Fatty acid binding to the human transport proteins FABP3, FABP4, and FABP5 from a Ligand’s perspective” (The Journal of Biological Chemistry, 2024).
Where “and” joins values, the source holds several entries; their conditions need not be identical. Identical values can stand only once. Like-named read-outs stand apart in the source and are kept apart here.

What was measured:
Format in all cases: binding
FABP4 = target: T1, FABP4 (Homo sapiens, UniProt P15090); assay: CW EPR spectra and spectral simulations of spin-probed fatty acids with FABP4; details: 37 °C
T1 construct: purchased Sigma Aldrich
Experimental: (§1) For a more in-depth view of the binding mechanism, CW EPR spectra of 5/16-DSA with concentration series of the FABPs were measured and simulated. […] Equal concentrations of 20 μM of each spin probe (5- and 16-DSA) were mixed with FABP concentrations of 0 to 200 μM, increasing the resulting ligand/protein ratio in the samples stepwise from 1/0 to 1/10.
(§2) To analyze the spectra quantitatively, subsequent EPR spectral simulations were performed (Fig. 2, B and C). […] For a better understanding, a first interpretation of these components is given at this point. The rotational dynamics are thought to be indirectly proportional to the strength of intermolecular interactions between fatty acid and FABP. Therefore, they are indicative of the binding state of the fatty acids. Higher rotational correlation times signalize lower ligand dynamics and stronger interactions with the protein. […] This exchange broadening can only occur if radicals are located very close distance each other, colliding with each other, leading to partial overlap of spin-bearing orbitals.
(§3) The fractions (weights) Φx of the spectral components were extracted from the EPR simulations of the concentration series and were used to calculate the concentrations of all components with Eq (1). in Figure 3. This was performed for the intermediately and strongly bound components, as well as for their sum, called totally bound 5/16-DSA, to construct binding curves for all FABPs and spin probes. […] Different fit functions were applied to the curves for a better qualitative and quantitative analysis.

FABP5 [1] = target: T2, FABP5 (Homo sapiens, UniProt Q01469); assay: CW EPR spectra and spectral simulations of spin-probed fatty acids with FABP5
T2 construct: purchased Sigma Aldrich
Experimental: as §1, §2, §3

FABP3 = target: T3, FABP3 (Homo sapiens, UniProt P05413); assay: CW EPR spectra and spectral simulations of spin-probed fatty acids with FABP3
T3 construct: purchased Sigma Aldrich
Experimental: as §1, §2, §3

FABP5 [2] = target: T2, FABP5; assay: DHA displacement of 16-DSA from FABP5 by CW EPR; details: FABP5/16-DSA/DHA up to 20/20/100
Description: In a second addition during revision, we were curious about the question of whether our model ligands that bind with medium affinity to the FABP binding pocket will be displaced when we add a native ligand with higher affinity and whether we could detect this displacement with our CW EPR setup. The native ligand DHA was chosen for this displacement analysis since it is well-known to bind with high affinity to FABP5 ([26]). DHA was pre-dissolved in ethanol, diluted into buffer, and mixed with FABP5 and 16-DSA. […] Samples with FABP5/16-DSA/DHA ratios 20/20/0, 20/20/5, 20/20/10, 20/20/20, 20/20/50, and 20/20/100 were prepared with 5 min incubation time in between 16-DSA and DHA addition. […] We assume that the well-known high binding affinity of DHA refers to the state of strong binding within the pocket. […] Instead, a dynamic exchange of ligands seems to occur, as we consistently observe it with albumins from different species. However, this part opens the way to other future competitive binding assays via CW EPR spectroscopy, e.g., with pharmaceuticals that bind to FABPs.
CW EPR spectroscopic measurements were performed at X-band frequencies (∼9.4 GHz) with a benchtop spectrometer Magnettech MS-5000 (Freiberg Instruments GmbH, now Bruker Biospin). The samples were prepared in low-binding PCR tubes (250 μl). Protein and 5/16-DSA solutions were mixed with HEPES/NaCl buffer at pH 7.5, to obtain samples with a constant 5/16-DSA concentration of 20 μM and varying FABP concentrations of 200, 100, 50, 35, 25, 20, 15, 10 and 5 μM. After an incubation time of 20 min, the samples were transferred into glass capillaries, which were sealed with ‘Critoseal’. At first, solutions with 20 μM of 5/16-DSA were measured as references at 37 °C. The concentration series of FABP with 20 μM 5/16-DSA were measured at 37 °C, directly after preparation. Afterward, the sample capillaries were stored at 4 °C, and subsequent temperature-dependent measurements were performed. […]

[3] = 37 °C, 20 μM spin probe, EPR binding curve, read-out: KD,T,75′ (fit), apparent KD read at 75% totally bound
[4] = Hill fit of EPR binding curve, totally bound, 37 °C
[5] = Hill fit, totally bound (T), y = bound 5/16-DSA
[6] = read-out: KD,T,50′ (fit), apparent KD read at 50% totally bound, 37 °C, 20 μM spin probe, EPR binding curve
[7] = Fig. 2B, 20 μM 5-DSA with 100 μM FABP3

T3 sequence (P05413 whole entry): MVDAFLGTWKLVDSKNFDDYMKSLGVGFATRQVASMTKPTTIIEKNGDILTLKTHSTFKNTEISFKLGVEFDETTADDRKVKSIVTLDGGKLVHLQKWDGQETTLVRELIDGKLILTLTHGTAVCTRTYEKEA
T1 sequence (P15090 whole entry): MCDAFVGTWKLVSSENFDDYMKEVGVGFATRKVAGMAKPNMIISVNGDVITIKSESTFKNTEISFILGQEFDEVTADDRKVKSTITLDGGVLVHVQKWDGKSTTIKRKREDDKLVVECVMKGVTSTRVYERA
T2 sequence (Q01469 whole entry): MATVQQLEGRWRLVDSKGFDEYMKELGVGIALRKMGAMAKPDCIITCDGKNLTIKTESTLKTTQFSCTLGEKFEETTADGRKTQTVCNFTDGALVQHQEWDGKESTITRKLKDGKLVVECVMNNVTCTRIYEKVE

Compound: CCCCCCCCCCCCCC1(CCCC(=O)O)OCC(C)(C)N1[O] (stereo not shown) [5-DSA, 5-DOXYL stearic acid]
- Kd (FABP4; 20 μM FABP4, 20 μM spin probe, read-out: KD,T,20μM (calculated, totally bound)): 20.8 ± 0.8 µM
- Kd (FABP4; 20 μM spin probe, EPR binding curve, read-out: KD,T,75′ (fit), apparent KD read at 75% totally bound): 66 ± 0.7 µM
- Kd (FABP4; 50 μM FABP4, 20 μM spin probe, read-out: KD,T,50μM (calculated, totally bound)): 25.3 ± 1 µM
- ΔGF−I,100μM (free to intermediately bound) (FABP4; 100 μM FABP4): -6.19 ± 0.096 kcal/mol
- ΔGF−S,100μM (free to strongly bound) (FABP4; 100 μM FABP4): -4.85 ± 0.024 kcal/mol
- ΔGF−T,100μM (free to totally bound) (FABP4; 100 μM FABP4): -7.12 ± 0.263 kcal/mol
- ΔGI−S,100μM (intermediately to strongly bound) (FABP4; 100 μM FABP4): 0.741 ± 0.048 kcal/mol
- Kd (FABP4; 100 μM FABP4, 20 μM spin probe, read-out: KD,T,100μM (calculated, totally bound)): 9.53 ± 0.53 µM
- aiso, component (1) free (FABP4; EPR simulation): 44.1 MHz
- aiso, component (2) intermediately bound (FABP4; EPR simulation): 46.9 MHz
- aiso, component (3) strongly bound (FABP4; EPR simulation): 43.0 MHz
- τc,iso, component (1) free (FABP4; EPR simulation): 0.06–0.08 ns
- τc,iso, component (2) intermediately bound (FABP4; EPR simulation): 4.8 ns
- τc,iso, component (3) strongly bound (FABP4; EPR simulation): 17.9 ns
- Hill coefficient n (FABP4; Hill fit of EPR binding curve, totally bound): > 1
- Kd (FABP4; read-out: KD,T,50′ (fit), apparent KD read at 50% totally bound, 20 μM spin probe, EPR binding curve): 31.6 ± 0.3 µM
- Kd (FABP5 [1]; 37 °C, 20 μM FABP5, 20 μM spin probe, read-out: KD,T,20μM (calculated, totally bound)): 2.05 ± 0.5 µM
- Kd (FABP5 [1]; [3]): 25 ± 0.3 µM
- Kd (FABP5 [1]; 37 °C, 50 μM FABP5, 20 μM spin probe, read-out: KD,T,50μM (calculated, totally bound)): 5.82 ± 1.14 µM
- ΔGF−I,100μM (free to intermediately bound) (FABP5 [1]; 37 °C, 100 μM FABP5): -6.14 ± 0.048 kcal/mol
- ΔGF−S,100μM (free to strongly bound) (FABP5 [1]; 37 °C, 100 μM FABP5): -4.97 ± 0.024 kcal/mol
- ΔGF−T,100μM (free to totally bound) (FABP5 [1]; 37 °C, 100 μM FABP5): -7.24 ± 0.19 kcal/mol
- ΔGI−S,100μM (intermediately to strongly bound) (FABP5 [1]; 37 °C, 100 μM FABP5): 0.621 ± 0.024 kcal/mol
- Kd (FABP5 [1]; 37 °C, 100 μM FABP5, 20 μM spin probe, read-out: KD,T,100μM (calculated, totally bound)): 7.79 ± 0.37 µM
- aiso, component (1) free (FABP5 [1]; 37 °C, EPR simulation): 44.1 MHz
- aiso, component (2) intermediately bound (FABP5 [1]; 37 °C, EPR simulation): 44.9–46.9 MHz
- aiso, component (3) strongly bound (FABP5 [1]; 37 °C, EPR simulation): 42.3–43.7 MHz
- τc,iso, component (1) free (FABP5 [1]; 37 °C, EPR simulation): 0.09–0.1 ns
- τc,iso, component (2) intermediately bound (FABP5 [1]; 37 °C, EPR simulation): 4.8 ns
- τc,iso, component (3) strongly bound (FABP5 [1]; 37 °C, EPR simulation): 17.9 ns
- totally bound fraction (FABP5 [1]; 37 °C, high FABP5 excess): 94.8%
- Hill coefficient n (FABP5 [1]; [4]): 1.109 ± 0.041 and ≈ 1
- Hill fit k (FABP5 [1]; Hill fit, totally bound (T), x = c(FABP5)/c(5/16-DSA)): 0.352 ± 0.009
- Hill fit Vmax (FABP5 [1]; [5]): 96.295 ± 0.907
- Kd (FABP5 [1]; [6]): 6.6 ± 0.1 µM
- Kd (FABP3; 37 °C, 20 μM FABP3, 20 μM spin probe, read-out: KD,T,20μM (calculated, totally bound)): 0.82 ± 0.65 µM
- Kd (FABP3; [3]): 17.4 ± 0.2 µM
- Kd (FABP3; 37 °C, 50 μM FABP3, 20 μM spin probe, read-out: KD,T,50μM (calculated, totally bound)): 2.44 ± 1.87 µM
- ΔGF−I,100μM (free to intermediately bound) (FABP3; 37 °C, 100 μM FABP3): -6.84 ± 0.22 kcal/mol
- ΔGF−S,100μM (free to strongly bound) (FABP3; 37 °C, 100 μM FABP3): -4.4 ± 0.048 kcal/mol
- ΔGF−T,100μM (free to totally bound) (FABP3; 37 °C, 100 μM FABP3): -8.08 ± 0.813 kcal/mol
- ΔGI−S,100μM (intermediately to strongly bound) (FABP3; 37 °C, 100 μM FABP3): 1.27 ± 0.072 kcal/mol
- Kd (FABP3; 37 °C, 100 μM FABP3, 20 μM spin probe, read-out: KD,T,100μM (calculated, totally bound)): 2.06 ± 2.68 µM
- aiso, component (1) free (FABP3; 37 °C, EPR simulation): 44.1 MHz
- aiso, component (2) intermediately bound (FABP3; 37 °C, EPR simulation): 42.9 MHz
- aiso, component (3) strongly bound (FABP3; 37 °C, EPR simulation): 41.3 MHz
- τc,iso, component (1) free (FABP3; 37 °C, EPR simulation): 0.1 ns
- τc,iso, component (2) intermediately bound (FABP3; 37 °C, EPR simulation): 4.8–4.9 ns
- τc,iso, component (3) strongly bound (FABP3; 37 °C, EPR simulation): 17.9–19 ns
- bound molecules at complete saturation (FABP3; 37 °C, tenfold protein excess, totally bound): 100%
- rotational correlation time τc, component (1) (FABP3; [7]): 0.1 ns
- rotational correlation time τc, component (3) (FABP3; [7]): 17.8 ns
- Hill coefficient n (FABP3; [4]): 1.898 and > 1
- Hill fit k (FABP3; Hill fit, totally bound (T), x = c(FABP3)/c(5/16-DSA)): 0.475 ± 0.019
- Hill fit Vmax (FABP3; [5]): 98.766 ± 1.7
- Kd (FABP3; [6]): 9.6 ± 0.1 µM

Compound: CC/C=C\C/C=C\C/C=C\C/C=C\C/C=C\C/C=C\CCC(=O)O [DHA, Cis-4,7,10,13,16,19-Docosahexaenoic acid]
- bound 16-DSA with rising DHA content (FABP5 [2]): 55%
- displacement of 16-DSA (FABP5 [2]): no complete displacement of 16-DSA occurred
